Reference: ChEMBL document CHEMBL1201862, “PubChem BioAssay data set” (2004)
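In this assay, cells in 96-well plates receive the compound at five concentrations for 48 hours. Endpoints are linearly interpolated between the surrounding concentrations. GI50 marks 50% less growth.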 Calls of active or inactive are those of the source. Rule as the data show it: active = GI50 up to about 1.1 µM and inactive = higher.

Legend:
Experiment in all cases: growth of human tumour cells (NCI), 48 h
[1] = tested on: 786-0
[2] = tested on: A498
[3] = tested on: ACHN
[4] = tested on: COLO 205
[5] = tested on: IGROV-1
[6] = tested on: K562
[7] = tested on: MOLT-4
[8] = tested on: NCI-H226
[9] = tested on: NCI-H23
[10] = tested on: OVCAR-3
[11] = tested on: OVCAR-4
[12] = tested on: SF-539
[13] = tested on: SK-MEL-2
[14] = tested on: SR
[15] = tested on: TK-10
[16] = tested on: HL-60
[17] = tested on: MCF7
[18] = tested on: BT-549
[19] = tested on: MDA-N

| SMILES | GI50 [1] | GI50 [2] | GI50 [3] | GI50 [4] | GI50 [5] | GI50 [6] | GI50 [7] | GI50 [8] | GI50 [9] | GI50 [10] | GI50 [11] | GI50 [12] | GI50 [13] | GI50 [14] | GI50 [15] | GI50 [16] | GI50 [17] | GI50 [18] | GI50 [19] |
| --- | --- | --- | --- | --- | --- | --- | --- | --- | --- | --- | --- | --- | --- | --- | --- | --- | --- | --- | --- |
| Cn1cnnc1Sc1c([N+](=O)[O-])ncn1C | > 100 µM (inactive) | > 100 µM (inactive) | > 100 µM (inactive) | 34.3 µM (inactive) | > 100 µM (inactive) | 29.2 µM (inactive) | 31 µM (inactive) | > 100 µM (inactive) | 84.7 µM (inactive) | > 100 µM (inactive) | > 100 µM (inactive) | > 100 µM (inactive) | 50.6 µM (inactive) | 26.5 µM (inactive) | > 100 µM (inactive) | – | – | – | – |
| COP(=O)(Cc1ccc(/C=C/C#N)o1)OC | > 100 µM (inactive) | > 100 µM (inactive) | – | > 100 µM (inactive) | > 100 µM (inactive) | > 100 µM (inactive) | > 100 µM (inactive) | > 100 µM (inactive) | > 100 µM (inactive) | > 100 µM (inactive) | > 100 µM (inactive) | > 100 µM (inactive) | – | > 100 µM (inactive) | > 100 µM (inactive) | > 100 µM (inactive) | > 100 µM (inactive) | – | – |
| C/C=C/[C@H]1O[C@@](O)([C@@H](C)[C@H](O)[C@H](C)[C@H]2OC(=O)/C(OC)=C/C(C)=C/[C@@H](C)[C@@H](O)[C@@H](CC)[C@@H](O)[C@H](C)C/C(C)=C/C=C/[C@@H]2OC)C[C@H](OC2CC(O)C(OC(N)=O)C(C)O2)[C@@H]1C (stereo partly specified) | 0.0183 µM (active) | 18.8 µM (inactive) | 0.0286 µM (active) | 0.0334 µM (active) | 0.0458 µM (active) | 0.024 µM (active) | < 0.01 µM (active) | 0.0336 µM (active) | 7.13 µM (inactive) | < 0.0181 µM (active) | 0.0791 µM (active) | 0.0224 µM (active) | 0.0195 µM (active) | < 0.01 µM (active) | 17.3 µM (inactive) | < 0.01 µM (active) | 0.0293 µM (active) | 0.0843 µM (active) | – |
| N#CC(C(=O)/C(=N\NC(N)=O)C(C#N)c1ccccc1)c1ccccc1 (stereo unspecified) | > 100 µM (inactive) | > 100 µM (inactive) | > 100 µM (inactive) | > 100 µM (inactive) | > 100 µM (inactive) | > 100 µM (inactive) | > 100 µM (inactive) | > 100 µM (inactive) | > 100 µM (inactive) | > 100 µM (inactive) | > 100 µM (inactive) | > 100 µM (inactive) | > 100 µM (inactive) | > 100 µM (inactive) | > 100 µM (inactive) | > 100 µM (inactive) | – | – | – |
| COc1ccc(/C=N/n2c(C)n[nH]c2=O)cc1 | > 100 µM (inactive) | > 100 µM (inactive) | > 100 µM (inactive) | > 100 µM (inactive) | – | > 100 µM (inactive) | > 100 µM (inactive) | > 100 µM (inactive) | > 100 µM (inactive) | 54.3 µM (inactive) | 42.8 µM (inactive) | > 100 µM (inactive) | > 100 µM (inactive) | – | – | – | > 100 µM (inactive) | > 100 µM (inactive) | > 100 µM (inactive) |
| CC(C)(C)c1cc(COc2cc(COc3ccc(-c4c5c(nc6c4CCc4ccc(-c7c8ccccc8nc8ccccc78)cc4-6)-c4cc(-c6c7ccccc7nc7ccccc67)ccc4CC5)cc3)cc(OCc3cc(C(C)(C)C)cc(C(C)(C)C)c3)c2)cc(C(C)(C)C)c1 | > 100 µM (inactive) | > 100 µM (inactive) | > 100 µM (inactive) | > 100 µM (inactive) | – | > 100 µM (inactive) | – | > 100 µM (inactive) | > 100 µM (inactive) | > 100 µM (inactive) | > 100 µM (inactive) | – | > 100 µM (inactive) | – | > 100 µM (inactive) | – | > 100 µM (inactive) | > 100 µM (inactive) | > 100 µM (inactive) |
| CC1(C)CC(=O)C2=C(C1)OC1=C(CC(C)(C)CC1=O)C2c1ccccc1Cl (stereo unspecified) | > 100 µM (inactive) | > 100 µM (inactive) | > 100 µM (inactive) | > 100 µM (inactive) | > 100 µM (inactive) | > 100 µM (inactive) | > 100 µM (inactive) | > 100 µM (inactive) | > 100 µM (inactive) | > 100 µM (inactive) | > 100 µM (inactive) | 70.5 µM (inactive) | > 100 µM (inactive) | > 100 µM (inactive) | – | > 100 µM (inactive) | – | – | – |
| Clc1ccc2c(NCCNC3CCCCC3)ccnc2c1 | 5.47 µM (inactive) | 2.11 µM (inactive) | 12.5 µM (inactive) | 1.36 µM (inactive) | 11.8 µM (inactive) | 2.12 µM (inactive) | 3.48 µM (inactive) | 10.6 µM (inactive) | 15.7 µM (inactive) | 15 µM (inactive) | 11.6 µM (inactive) | – | 3.22 µM (inactive) | – | 2.7 µM (inactive) | 2.42 µM (inactive) | 4.53 µM (inactive) | 10.5 µM (inactive) | 2.29 µM (inactive) |
| CC1(C)[C@@H](Cn2cc(I)c(=O)[nH]c2=O)CC[C@@]1(C)CO | > 100 µM (inactive) | > 100 µM (inactive) | > 100 µM (inactive) | > 100 µM (inactive) | – | 45.1 µM (inactive) | – | > 100 µM (inactive) | – | > 100 µM (inactive) | > 100 µM (inactive) | – | > 100 µM (inactive) | – | > 100 µM (inactive) | – | – | – | > 100 µM (inactive) |
| O=C1C=CC=C/C1=C1\N=C(c2ccccc2OCC(=O)c2ccc(Br)cc2)SS1 | 31.5 µM (inactive) | > 100 µM (inactive) | 62.7 µM (inactive) | > 100 µM (inactive) | 9.23 µM (inactive) | > 100 µM (inactive) | > 10 µM (inactive) | 48 µM (inactive) | 35.2 µM (inactive) | > 100 µM (inactive) | 40.1 µM (inactive) | 24.4 µM (inactive) | 42.5 µM (inactive) | – | 13.5 µM (inactive) | > 100 µM (inactive) | > 100 µM (inactive) | 13.3 µM (inactive) | > 100 µM (inactive) |
| C[C@H]1OC(=O)[C@@H]2N=NN(Cc3ccccc3)[C@H]12 | > 100 µM (inactive) | > 100 µM (inactive) | > 100 µM (inactive) | > 100 µM (inactive) | – | > 100 µM (inactive) | > 100 µM (inactive) | – | > 100 µM (inactive) | > 100 µM (inactive) | > 100 µM (inactive) | > 100 µM (inactive) | > 100 µM (inactive) | > 100 µM (inactive) | > 100 µM (inactive) | – | > 100 µM (inactive) | – | > 100 µM (inactive) |
| O=C1CC2C=CC(O)C(C1)C2 (stereo unspecified) | > 100 µM (inactive) | > 100 µM (inactive) | > 100 µM (inactive) | > 100 µM (inactive) | > 100 µM (inactive) | > 100 µM (inactive) | > 100 µM (inactive) | 37.4 µM (inactive) | > 100 µM (inactive) | > 100 µM (inactive) | > 100 µM (inactive) | > 100 µM (inactive) | > 100 µM (inactive) | < 0.01 µM (active) | > 100 µM (inactive) | > 100 µM (inactive) | > 100 µM (inactive) | – | > 100 µM (inactive) |
| Cc1cc2nc3c(N)nn(CCCN(C)C)c3nc2cc1C | 68.9 µM (inactive) | > 100 µM (inactive) | 60.3 µM (inactive) | 55 µM (inactive) | – | – | – | – | > 100 µM (inactive) | > 100 µM (inactive) | > 100 µM (inactive) | > 100 µM (inactive) | – | – | 71.6 µM (inactive) | – | 33.4 µM (inactive) | > 100 µM (inactive) | – |
| C/C1=N\[N-]C(=O)c2ccccc2C(=O)N/N=C(\C)c2cccc1n2.O=[N+]([O-])[O-].[Zn+2] | > 100 µM (inactive) | > 100 µM (inactive) | > 100 µM (inactive) | > 100 µM (inactive) | > 100 µM (inactive) | > 100 µM (inactive) | > 100 µM (inactive) | – | > 100 µM (inactive) | > 100 µM (inactive) | > 100 µM (inactive) | > 100 µM (inactive) | > 100 µM (inactive) | – | > 100 µM (inactive) | – | – | – | – |
| CCOn1cc(C[C@@]2(O)C(=O)OC3[C@@H](O)CO[C@@]32O)c2ccccc21 (stereo partly specified) | 94.4 µM (inactive) | 1.94 µM (inactive) | > 100 µM (inactive) | > 100 µM (inactive) | > 100 µM (inactive) | > 100 µM (inactive) | > 100 µM (inactive) | > 100 µM (inactive) | > 100 µM (inactive) | > 100 µM (inactive) | > 100 µM (inactive) | > 100 µM (inactive) | > 100 µM (inactive) | > 100 µM (inactive) | > 100 µM (inactive) | > 100 µM (inactive) | > 100 µM (inactive) | > 100 µM (inactive) | – |
| O=C(Cc1nc2ccc(C(=O)c3ccccc3)cc2nc1O)C(=O)Nc1ccc(Br)cc1 | > 100 µM (inactive) | > 100 µM (inactive) | 71.8 µM (inactive) | – | > 100 µM (inactive) | 49.2 µM (inactive) | – | 78.2 µM (inactive) | > 100 µM (inactive) | > 100 µM (inactive) | 44.4 µM (inactive) | > 100 µM (inactive) | > 100 µM (inactive) | – | > 100 µM (inactive) | 69.7 µM (inactive) | > 100 µM (inactive) | > 100 µM (inactive) | 39.7 µM (inactive) |
| CC1=C/C(=N\OCC(=O)O)CC(c2ccc(C(C)C)cc2)C1 (stereo unspecified) | 65.8 µM (inactive) | – | – | 76.7 µM (inactive) | > 100 µM (inactive) | 32.3 µM (inactive) | 16.3 µM (inactive) | – | – | – | – | 93.1 µM (inactive) | 99.1 µM (inactive) | 28.1 µM (inactive) | – | 26.5 µM (inactive) | 52.5 µM (inactive) | – | 34.5 µM (inactive) |
